{"source": "patent US9480280B2", "about": "“Taste modifiers” (Givaudan S.A., priority 2012, dated 2016)", "key": {"[1]": {"assay": "Rebaudioside A evaluation (taste descriptors)", "conditions": "compared to base without compound", "procedure": "A tasting base was prepared with 300 ppm Rebaudioside A in ater. Compounds were added to the base in the concentrations indicated in the table and compared to the base without compound added."}, "[2]": {"assay": "Kefir evaluation of creamyness/mouthfeel enhancement", "conditions": "compared to base without compound", "text": "A commercial Kefir drink was used as a base to evaluate the creamyness/mouthfeel enhancement properties of the compounds. Samples with compound were compared to the base without compound added."}, "[3]": {"assay": "Red Bull drink evaluation of masking", "conditions": "compared to base without compound", "procedure": "A commercial Red Bull™ Energy drink was used as a base to evaluate the masking properties of the compounds. Compounds were added to the base in the concentrations indicated in the table and compared to the base without compound added."}, "[4]": {"assay": "Skim milk evaluation of creamyness/mouthfeel enhancement", "conditions": "10 ppm in skim milk, compared to base without compound", "text": "Skim milk was used as a base to evaluate the creamyness/mouthfeel enhancement properties of the compounds. Samples with compound were compared to the base without compound added."}, "[5]": {"assay": "Sucralose evaluation of bitter masking", "conditions": "compared to base without compound", "procedure": "Compounds were prepared in a sucralose base containing 80 ppm sucralose in water. Compounds were calculated in the base and compared to the base without may compound added.\nA solution containing 80 ppm sucralose in water was used as a base to evaluate the bitter masking properties of the compounds. Samples with compound were compared to the base without compound added."}, "[6]": {"assay": "Low fat milk evaluation of creamyness/mouthfeel enhancement", "conditions": "4 ppm in low fat milk (1.5-2% fat), compared to base without compound", "text": "Low fat milk (1.5-2% fat) was used as a base to evaluate the creamyness/mouthfeel enhancement properties of the compounds. Samples with compound were compared to the base without compound added."}, "[7]": {"assay": "Sweetened yogurt evaluation of creamyness/mouthfeel enhancement", "conditions": "10 ppm in yogurt with 5% sucrose and 0.03% creamy mouthfeel flavor, compared to base without compound", "text": "Sweetened yogurt with flavor was used as a base to evaluate the creamyness/mouthfeel enhancement properties of the compounds. The yogurt base was sweetened with 5% sucrose and 0.03% creamy mouthfeel flavor (Givaudan 97584209). Samples with compound were compared to the sweetened base without compound added."}, "[8]": {"conditions": "J. Agr. Food. Chem. 2007, 55, 9634-9645; cited from earlier work"}, "[9]": {"conditions": "2 ppm in 300 ppm Rebaudioside A in water"}, "[10]": {"conditions": "5 ppm in 300 ppm Rebaudioside A in water"}, "[11]": {"conditions": "10 ppm in 300 ppm Rebaudioside A in water"}, "[12]": {"conditions": "2 ppm in commercial Kefir drink"}, "[13]": {"conditions": "5 ppm in commercial Kefir drink"}, "[14]": {"conditions": "10 ppm in Red Bull Energy drink"}, "[15]": {"conditions": "2 ppm in 80 ppm sucralose in water"}, "[16]": {"conditions": "5 ppm in 80 ppm sucralose in water"}, "[17]": {"conditions": "10 ppm in 80 ppm sucralose in water"}}}
{"smiles": "CC(O)CCCCC1CCC(=O)O1", "note": "(stereo not drawn) [9-hydroxy gamma decalactone, 5-(5-hydroxyhexyl)dihydrofuran-2(3H)-one]", "values": [{"measurement": "Taste Description", "setting": "[1]; [9]", "value": "Slight fatty note at end."}, {"measurement": "Taste Description", "setting": "[1]; [10]", "value": "Not much"}, {"measurement": "Taste Description", "setting": "[1]; [11]", "value": "High offnote, changes"}, {"measurement": "Taste Description", "setting": "[2]; [12]", "value": "More creamy than control, upfront"}, {"measurement": "Taste Description", "setting": "[2]; [13]", "value": "More dairy note, more mid body."}, {"measurement": "Taste Description", "setting": "[3]; 5 ppm in Red Bull Energy drink", "value": "Less sweetness, strong linger"}, {"measurement": "Taste Description", "setting": "[3]; [14]", "value": "Good masking, offnote"}, {"measurement": "Taste Description", "setting": "[4]", "value": "No mouthfeel"}, {"measurement": "Taste Description", "setting": "[5]; [15]", "value": "Floral, little masking, waxy,"}, {"measurement": "Taste Description", "setting": "[5]; [16]", "value": "Some effect"}, {"measurement": "Taste Description", "setting": "[5]; [17]", "value": "High offnote. masks"}]}
{"smiles": "CCC(O)CCCC1CCC(=O)O1", "note": "(stereo not drawn) [8-hydroxy gamma decalactone, 5-(4-hydroxyhexyl)dihydrofuran-2(3H)-one]", "values": [{"measurement": "Taste Description", "setting": "[1]; [9]", "value": "Masks lots of bitter, less"}, {"measurement": "Taste Description", "setting": "[1]; [10]", "value": "Some masking"}, {"measurement": "Taste Description", "setting": "[1]; [11]", "value": "High offnote, masks more"}, {"measurement": "Taste Description", "setting": "[2]; [12]", "value": "Much creamier, fattier, fuller,"}, {"measurement": "Taste Description", "setting": "[2]; [13]", "value": "more mid body, creamier"}, {"measurement": "Taste Description", "setting": "[3]; 5 ppm in Red Bull Energy drink", "value": "Good masking. less sweet"}, {"measurement": "Taste Description", "setting": "[3]; [14]", "value": "Offnote, similar to control"}, {"measurement": "Taste Description", "setting": "[4]", "value": "Some mouthfeel effect"}, {"measurement": "Taste Description", "setting": "[5]; [15]", "value": "Floral, little masking, waxy,"}, {"measurement": "Taste Description", "setting": "[5]; [16]", "value": "Some effect"}, {"measurement": "Taste Description", "setting": "[5]; [17]", "value": "Masks sweetness, floral,"}]}
{"smiles": "CCC(O)CCCCCCC(=O)O", "note": "(stereo not drawn) [8-Hydroxy decanoic acid, 8-hydroxydecanoic Acid]", "values": [{"measurement": "Taste Description", "setting": "[1]; [9]", "value": "Less bitter, less bitter"}, {"measurement": "Taste Description", "setting": "[1]; [10]", "value": "Less bitter, less bitter"}, {"measurement": "Taste Description", "setting": "[1]; [11]", "value": "Helps overall especially"}, {"measurement": "Taste Description", "setting": "[2]; [13]", "value": "Creamy. fatty mouthfeel. good"}, {"measurement": "Taste Description", "setting": "[6]", "value": "Slight mouthfeel"}, {"measurement": "Taste Description", "setting": "[4]", "value": "Some mouthfeel effect"}, {"measurement": "Taste Description", "setting": "[5]; [15]", "value": "Less lingering, more"}, {"measurement": "Taste Description", "setting": "[5]; [16]", "value": "Velvety mouthfeel. very full."}, {"measurement": "Taste Description", "setting": "[5]; [17]", "value": "No masking, adds"}, {"measurement": "Taste Description", "setting": "[7]", "value": "Lingering waxy profile, fattier."}]}
{"smiles": "CC(O)CCCCCCCC(=O)O", "note": "(stereo not drawn) [9-Hydroxy decanoic acid, 9-hydroxydecanoic Acid]", "values": [{"measurement": "Taste Description", "setting": "[1]; [9]", "value": "Less bitter, lingering, more"}, {"measurement": "Taste Description", "setting": "[1]; [10]", "value": "Less bitter, lingernig, waxy,"}, {"measurement": "Taste Description", "setting": "[1]; [11]", "value": "Offtaste, not much"}, {"measurement": "Taste Description", "setting": "[2]; [12]", "value": "Very creamy, slight mouthfeel, more"}, {"measurement": "Taste Description", "setting": "[2]; [13]", "value": "Very creamy, mouth-coating, smooth,"}, {"measurement": "Taste Description", "setting": "[6]", "value": "Slightly more mouthfeel"}, {"measurement": "Taste Description", "setting": "[3]; [14]", "value": "Masks better than control"}, {"measurement": "Taste Description", "setting": "[4]", "value": "Some mouthfeel effect"}, {"measurement": "Taste Description", "setting": "[5]; [15]", "value": "Less bitter. lingering, more"}, {"measurement": "Taste Description", "setting": "[5]; [16]", "value": "Backend masks lingering."}, {"measurement": "Taste Description", "setting": "[5]; [17]", "value": "Nice mouthfeel, full upfront"}, {"measurement": "Taste Description", "setting": "[7]", "value": "Lingering waxy profile, fattier."}]}
{"smiles": "CCCCCCCCCC1CCCC(=O)O1", "note": "(stereo not drawn) [δ-tetradecalactone]", "values": [{"measurement": "effect on cream flavour / creaminess", "setting": "[8]", "value": "able to enhance the retronasal cream flavour"}]}
